Results as given in paper PMC12040169 (PLOS Biology, 2025).

Assay: in vitro
Details: human, hela cells, % viability

Structure (SMILES)	viability at 28.5 h, 10 µM
OC1(c2cccnc2)CCCC2CN(Cc3c(F)cccc3F)CC21 (stereo not shown) [CBK284512]	114%
OC1(c2cccnc2)CCCC2CN(Cc3cc(F)ccc3F)CC21 (stereo not shown) [CBK284513]	103%
N=C1OC2CSCC2N1C(=O)Cc1ccc(F)cc1 (stereo not shown) [CBK284515]	103%
Cc1cc(C(=O)N2C3CCC2CC(O)(c2ccnn2C)C3)sc1C (stereo not shown) [CBK284518]	103%
O=C(Cc1ccccc1F)NCCn1nc2c(cc1=O)CCCCC2 [CBK284519]	94.7%
Cc1cc(-c2ccc(=O)n(CCNC(=O)C3CCCCC3)n2)c(C)o1 [CBK284522]	95.7%
N=C1OC2CSCC2N1C(=O)C1(c2ccccc2)CC1 (stereo not shown) [CBK284524]	106%
O=C(c1cccs1)N1CCC[C@@H]1Cn1c(=O)oc2ccccc21 [CBK284528]	102%
CCCC(=O)N[C@@H](Cn1c(=O)oc2ccccc21)C(C)C [CBK284536]	91.2%
O=C(c1ccco1)N1CCC[C@@H]1Cn1c(=O)oc2ccccc21 [CBK284538]	87.6%
O=C(C1CCCC1)N1CCC[C@@H]1Cn1c(=O)oc2ccccc21 [CBK284539]	87.3%
CC[C@H](Cn1c(=O)oc2ccccc21)NC(=O)c1cccs1 [CBK284540]	80.7%
CC[C@H](Cn1c(=O)oc2ccccc21)NC(=O)c1ccco1 [CBK284541]	86.7%
C[C@H](Cn1nc2c(cc1=O)CCCCC2)NC(=O)Cc1cccs1 [CBK284548]	100%
COc1ccc(F)c(CN2CC3CCCN3C[C@@H]2C)c1 (stereo partly shown) [CBK284549]	86.9%
CC[C@@H](Cn1nc2c(cc1=O)CCCCC2)NC(=O)c1ccco1 [CBK284553]	78.2%
C[C@@H]1CN2CCCC2CN1Cc1ccc2ncccc2c1 (stereo partly shown) [CBK284555]	99.3%
Cc1nc2nc(-c3ccc(Cl)s3)cn2nc1C [CBK284565]	103%
CC(C)C(=O)N1C[C@H]2N(C)C(=O)c3ccccc3C(=O)[C@@]2(C)C1 [CBK284568]	97.8%
CN1C(=O)c2ccccc2C(=O)[C@@]2(C)CN(C(=O)C3CC3)C[C@@H]12 [CBK284569]	87.3%
CN1C(=O)c2ccccc2C(=O)[C@@]2(C)CN(C(=O)C3CCCC3)C[C@@H]12 [CBK284570]	91.5%
CC(=O)NCCn1cc2c(n1)[C@H]1CN(C(=O)C(C)C)C[C@H]1CC2 [CBK284571]	93.3%
CC(=O)NCCn1cc2c(n1)[C@H]1CN(C(=O)CC(C)C)C[C@H]1CC2 [CBK284572]	99.1%

Structure (SMILES)	viability at 28.5 h, 10 µM
CCOC(=O)[C@@]12CC=CCN(C(=O)c3ccco3)[C@@H]1CCC2 [CBK284574]	104%
CCOC(=O)[C@@]12CC=CCN(C(=O)c3cccnc3)[C@@H]1CCC2 [CBK284575]	90.8%
CCn1ncc(CN2CCC(c3onc4c3CCCC4)CC2)c1C [CBK284576]	90.2%
CCOC(=O)C1(Cc2cc(-c3ccccc3F)no2)CCCNC1 (stereo not shown) [CBK284577]	85.2%
CCOC(=O)C1(Cc2cc(-c3ccc(F)cc3)no2)CCCNC1 (stereo not shown) [CBK284579]	84%
CCOC(=O)C1(Cc2cc(-c3ccccc3F)no2)CCNCC1 [CBK284580]	101%
CCOC(=O)C1(Cc2cc(-c3ccc(F)cc3)no2)CCNCC1 [CBK284581]	109%
CN(C)[C@@H]1CN(Cc2ccccn2)C[C@H]1c1cn(C)c2ccccc12 [CBK284582]	97.9%
CC(=O)NCCn1cc2c(n1)[C@H]1CN(C(=O)C3CCC3)C[C@H]1CC2 [CBK284584]	107%
CC(=O)N1C[C@@H](c2ccsc2)[C@@H]2CN(CC3CCCCC3)CC[C@@H]21 [CBK284587]	93%
O=C(NC1CC1)c1cc(C2CCCN(Cc3cccc(F)c3)C2)no1 (stereo not shown) [CBK284588]	99%
CC1CCN(C(=O)[C@@H]2CN(C)C[C@]23CCc2ccccc2C3=O)CC1 [CBK284589]	100%
CC(=O)N1CCCC(c2cc3cccnc3n2CCN2CCCC2)C1 (stereo not shown) [CBK284591]	96.8%
Cc1c(C(=O)N2CCCC(c3nc(C)n4ccsc34)C2)cnn1C (stereo not shown) [CBK284593]	102%
Cc1csc2c(C3CCCN(C(=O)c4ccccn4)C3)nc(C)n12 (stereo not shown) [CBK284594]	98.6%
COCC(=O)N1CCC(c2onc3c2CC(C)CC3)CC1 (stereo not shown) [CBK284599]	89.9%
COCC(=O)N1CCC(c2cc(-c3ccc(F)cc3)n[nH]2)C1 (stereo not shown) [CBK284600]	101%
COc1ccc(OC[C@@H]2C3CCC(C3)N2C(=O)C2CC2)cc1 (stereo partly shown) [CBK284602]	94.7%
Cc1noc2nc(C3CCCN(C(=O)C4CC4)C3)cc(C(F)F)c12 (stereo not shown) [CBK284608]	85.8%
O=C1NC2(CCc3ccccc31)CCN(Cc1ccncc1)C2 (stereo not shown) [CBK284610]	99%
Cc1cccnc1CN1CCC2(CCc3ccccc3C(=O)N2)C1 (stereo not shown) [CBK284611]	96.4%
O=C(C1CCCC1)N1CCC(c2nnc3n2CCCCC3)CC1 [CBK284612]	103%
CCCCC(=O)N1CC(n2nc(-c3ccccc3)ccc2=O)C1 [CBK284615]	95.6%
